Laboratory results: patent US12410208B2, “(2-acetamidyl)thio-beta-D-galactopyranoside derivatives” (Idorsia Pharmaceuticals Ltd, priority 2020, dated 2025)
Where two headings read alike, the source gives them in different places.

What was measured:
[1] = biological target: biotinylated human Gal-3 (hGal-3) (Homo sapiens, UniProt P17931); test: Competitive binding assay: biotinylated hGal-3 binding to microplate-adsorbed asialofetuin (ASF), spectrophotometric
Experimental: If not explicitly mentioned otherwise, the inhibition data refer to the binding of biotinylated human Gal-3 (hGal-3).
(§1) Biological Assay Evaluation of Compound Inhibitory Activity (IC50)
The inhibitory activity of compounds is determined in competitive binding assays.
Briefly, compounds are serially diluted in DMSO (working dilutions).
(§2) Plates are incubated for 3 hours at 4° C., then washed with cold assay buffer (3×50 uL), incubated for 1 hour with 25 μL/well of a streptavidin-peroxidase solution (diluted in assay buffer to 80 ng/mL) at 4° C., followed by further washing steps with assay buffer (3×50 uL). Finally, 25 μL/well of ABTS substrate is added.
(§3) The calculated IC50 values may fluctuate depending on the daily assay performance. Fluctuations of this kind are known to those skilled in the art. IC50 values from several measurements are given as mean values.

[2] = biological target: human Gal-1 (hGal-1) (Homo sapiens, UniProt P09382); test: Competitive binding assay: biotinylated hGal-1 binding to microplate-adsorbed asialofetuin (ASF), spectrophotometric; details: hGal-1 binding to asialofetuin; Table 15; R and S epimers of selected Examples also listed; read-out: IC50 (Galectin-1 inhibition)
Chain of human Gal-1 (hGal-1) (P09382 whole entry): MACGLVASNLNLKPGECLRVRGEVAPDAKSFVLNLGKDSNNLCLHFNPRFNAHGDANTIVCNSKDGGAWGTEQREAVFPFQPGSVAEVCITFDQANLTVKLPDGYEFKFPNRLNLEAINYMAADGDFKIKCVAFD
Experimental: as §1
The inhibitory activity of compounds is determined in competitive binding assays. This spectrophotometric assay measures the binding of biotinylated human Gal-3 (hGal-3) or human Gal-1 (hGal-1), respectively, to a microplate-adsorbed glycoprotein, asialofetuin (ASF) (Proc Natl Acad Sci USA. 2013 Mar. 26; 110(13):5052-7.).
Briefly, compounds are serially diluted in DMSO (working dilutions). ASF-coated 384well plates are supplemented with 22.8 μL/well of biotinylated hGal-3 or hGal-1 in assay buffer (i.e. 300-1000 ng/mL biotinylated hGal-3 or hGal-1) to which 1.2 μL of compound working dilutions are added and mixed.
as §2, §3

[3] = Table 8, hGal-3, read-out: IC50 (Gal-3 inhibition)
[4] = Gal-3 inhibition, Table 5, read-out: IC50
[5] = Table 6, hGal-3, read-out: IC50 (Gal-3 inhibition)
[6] = Gal-3 inhibition, Table 4, read-out: IC50

Chain of biotinylated human Gal-3 (hGal-3) (P17931 whole entry): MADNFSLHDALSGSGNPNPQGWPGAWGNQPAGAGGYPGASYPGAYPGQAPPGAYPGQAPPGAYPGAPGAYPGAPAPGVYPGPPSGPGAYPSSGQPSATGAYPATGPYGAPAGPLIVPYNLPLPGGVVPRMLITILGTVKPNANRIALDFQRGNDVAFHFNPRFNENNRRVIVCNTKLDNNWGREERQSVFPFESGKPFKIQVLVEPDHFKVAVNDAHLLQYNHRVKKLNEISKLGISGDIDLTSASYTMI

| Molecule | IC50 [2] | other results |
| --- | --- | --- |
| CN(CC(F)(F)F)C(=O)[C@H](S[C@@H]1O[C@H](CO)[C@H](O)[C@H](n2cc(-c3cc(F)c(F)c(F)c3)nn2)[C@H]1O)C1(O)CCCCC1 [Example 2.39.219R., (R)-2-(((2S,3R,4S,5R,6R)-3,5-Dihydroxy-6-(hydroxymethyl)-4-(4-(3,4,5-trifluorophenyl)-1H-1,2,3-triazol-1-yl)tetrahydro-2H-pyran-2-yl)thio)-2-(1-hydroxycyclohexyl)-N-methyl-N-(2,2,2-trifluoroethyl)acetamide] | 0.55 µM | IC50 [1, 4]: 0.27 µM |
| CCN(C)C(=O)C(S[C@@H]1O[C@H](CO)[C@H](O)[C@H](n2cc(-c3cc(F)c(F)c(F)c3)nn2)[C@H]1O)C1(O)CCC1 (stereo partly drawn) [Example 2.34.203., 2-(((2S,3R,4S,5R,6R)-3,5-Dihydroxy-6-(hydroxymethyl)-4-(4-(3,4,5-trifluorophenyl)-1H-1,2,3-triazol-1-yl)tetrahydro-2H-pyran-2-yl)thio)-N-ethyl-2-(1-hydroxycyclobutyl)-N-methylacetamide] | 0.64 µM | IC50 [1, 4]: 0.4 µM |
| CN(Cc1cn(C)cn1)C(=O)C(S[C@@H]1O[C@H](CO)[C@H](O)[C@H](n2cc(-c3cc(F)c(F)c(F)c3)nn2)[C@H]1O)C(C)(C)O (stereo partly drawn) [Example 2.31.215., 2-(((2S,3R,4S,5R,6R)-3,5-Dihydroxy-6-(hydroxymethyl)-4-(4-(3,4,5-trifluorophenyl)-1H-1,2,3-triazol-1-yl)tetrahydro-2H-pyran-2-yl)thio)-3-hydroxy-N,3-dimethyl-N-((1-methyl-1H-imidazol-4-yl)methyl)butanamide] | 1.68 µM | IC50 [1, 5]: 0.19 µM |
| CN(CC(C)(C)F)C(=O)[C@@H](S[C@@H]1O[C@H](CO)[C@H](O)[C@H](n2cc(-c3cc(F)c(F)c(F)c3)nn2)[C@H]1O)C1(O)CCCCC1 [Example 2.39.222S., (S)-2-(((2S,3R,4S,5R,6R)-3,5-Dihydroxy-6-(hydroxymethyl)-4-(4-(3,4,5-trifluorophenyl)-1H-1,2,3-triazol-1-yl)tetrahydro-2H-pyran-2-yl)thio)-N-(2-fluoro-2-methylpropyl)-2-(1-hydroxycyclohexyl)-N-methylacetamide] | 0.09 µM | IC50 [1, 4]: 0.02 µM |
| CN(CC(C)(C)C)C(=O)C(S[C@@H]1O[C@H](CO)[C@H](O)[C@H](n2cc(-c3cc(F)c(F)c(F)c3)nn2)[C@H]1O)C(C)(C)O (stereo partly drawn) [Example 2.31.228., 2-(((2S,3R,4S,5R,6R)-3,5-Dihydroxy-6-(hydroxymethyl)-4-(4-(3,4,5-trifluorophenyl)-1H-1,2,3-triazol-1-yl)tetrahydro-2H-pyran-2-yl)thio)-3-hydroxy-N,3-dimethyl-N-neopentylbutanamide] | 1.65 µM | IC50 [1, 5]: 0.67 µM |
| 2-(((2S,3R,4S,5R,6R)-3,5-Dihydroxy-6-(hydroxymethyl)-4-(4-(3,4,5-trifluorophenyl)-1H-1,2,3-triazol-1-yl)tetrahydro-2H-pyran-2-yl)thio)-N-ethyl-2-(4-hydroxy-1-methylpiperidin-4-yl)-N-methylacetamide [Example 2.40.203.] | 0.16 µM | IC50 [1, 6]: 0.08 µM |

Now from value to molecule, other results behind:

| IC50 [2] | Molecule | other results |
| --- | --- | --- |
| 10.5 µM | CCN(C)C(=O)[C@H](S[C@@H]1O[C@H](CO)[C@H](O)[C@H](n2cc(-c3cc(F)c(F)c(F)c3)nn2)[C@H]1O)C1(O)CCN(C(=O)OC)CC1 [Example 2.50.203R., (R)-Methyl 4-(1-(((2S,3R,4S,5R,6R)-3,5-dihydroxy-6-(hydroxymethyl)-4-(4-(3,4,5-trifluorophenyl)-1H-1,2,3-triazol-1-yl)tetrahydro-2H-pyran-2-yl)thio)-2-(ethyl(methyl)amino)-2-oxoethyl)-4-hydroxypiperidine-1-carboxylate] | IC50 [1, 3]: 4.45 µM |
| 0.1 µM | CCO[C@@H]1[C@@H](n2cc(-c3cc(F)c(F)c(F)c3)nn2)[C@@H](O)[C@@H](CO)O[C@H]1SC(C(=O)N1CCC(F)(F)CC1)C1(O)CCC(F)(F)CC1 (stereo partly drawn) [Example 2.44.226.II., 2-(4,4-Difluoro-1-hydroxycyclohexyl)-1-(4,4-difluoropiperidin-1-yl)-2-(((2S,3R,4S,5R,6R)-3-ethoxy-5-hydroxy-6-(hydroxymethyl)-4-(4-(3,4,5-trifluorophenyl)-1H-1,2,3-triazol-1-yl)tetrahydro-2H-pyran-2-yl)thio)ethan-1-one] | IC50 ([1]; Gal-3 inhibition, Table 14, read-out: IC50): 0.1 µM |
| 19 µM | CN(CC1CC1)C(=O)[C@H](S[C@@H]1O[C@H](CO)[C@H](O)[C@H](n2cc(-c3cc(F)c(F)c(F)c3)nn2)[C@H]1O)C1(O)CCOCC1 [Example 2.41.218R., (R)-N-(Cyclopropylmethyl)-2-(((2S,3R,4S,5R,6R)-3,5-dihydroxy-6-(hydroxymethyl)-4-(4-(3,4,5-trifluorophenyl)-1H-1,2,3-triazol-1-yl)tetrahydro-2H-pyran-2-yl)thio)-2-(4-hydroxytetrahydro-2H-pyran-4-yl)-N-methylacetamide] | IC50 [1, 6]: 2.25 µM |
| 0.22 µM | O=C(C(S[C@@H]1O[C@H](CO)[C@H](O)[C@H](n2cc(-c3cc(F)c(F)c(F)c3)nn2)[C@H]1O)C1(O)CCOCC1)N1CCCCC1 (stereo partly drawn) [Example 2.41.208., 2-(((2S,3R,4S,5R,6R)-3,5-Dihydroxy-6-(hydroxymethyl)-4-(4-(3,4,5-trifluorophenyl)-1H-1,2,3-triazol-1-yl)tetrahydro-2H-pyran-2-yl)thio)-2-(4-hydroxytetrahydro-2H-pyran-4-yl)-1-(piperidin-1-yl)ethan-1-one] | IC50 [1, 6]: 0.09 µM |
| 0.11 µM | O=C(C(S[C@@H]1O[C@H](CO)[C@H](O)[C@H](n2cc(-c3cc(F)c(F)c(F)c3)nn2)[C@H]1O)C1(O)CCC(F)(F)CC1)N1CCC(F)(F)CC1 (stereo partly drawn) [Example 2.44.226., 2-(4,4-Difluoro-1-hydroxycyclohexyl)-1-(4,4-difluoropiperidin-1-yl)-2-(((2S,3R,4S,5R,6R)-3,5-dihydroxy-6-(hydroxymethyl)-4-(4-(3,4,5-trifluorophenyl)-1H-1,2,3-triazol-1-yl)tetrahydro-2H-pyran-2-yl)thio)ethan-1-one] | IC50 [1, 4]: 0.09 µM |
| 0.02 µM | CCN(CC1CC1)C(=O)C(S[C@@H]1O[C@H](CO)[C@H](O)[C@H](n2cc(-c3cc(F)c(F)c(F)c3)nn2)[C@H]1OC)C1(O)CCC(F)(F)CC1 (stereo partly shown) [Example 2.44.239.I.] | IC50 ([1]; Table 10, hGal-3, read-out: IC50 (Gal-3 inhibition)): 0.04 µM |
| 0.03 µM | CCN(C)C(=O)[C@@H](S[C@@H]1O[C@H](CO)[C@H](O)[C@H](n2cc(-c3cc(F)c(F)c(F)c3)nn2)[C@H]1O)C1(O)CCN(S(=O)(=O)C2CC2)CC1 [Example 2.51.203S., (S)-2-(1-(Cyclopropylsulfonyl)-4-hydroxypiperidin-4-yl)-2-(((2S,3R,4S,5R,6R)-3,5-dihydroxy-6-(hydroxymethyl)-4-(4-(3,4,5-trifluorophenyl)-1H-1,2,3-triazol-1-yl)tetrahydro-2H-pyran-2-yl)thio)-N-ethyl-N-methylacetamide [1,3-di-deoxy-1-((2-(1-(cyclopropylsulfonyl)-4-hydroxypiperidin-4-yl)-N-ethyl-N-methylacetamide)-(S)-thio)-3-[4-(3,4,5-trifluorophenyl)-1H-1,2,3-triazol-1-yl]-β-D-galactopyranoside]] | IC50 [1, 3]: 0.02 µM |
| 1.5 µM | O=C(C(S[C@@H]1O[C@H](CO)[C@H](O)[C@H](n2cc(-c3cc(F)c(F)c(F)c3)nn2)[C@H]1O)C1(O)CCOCC1)N1CCC1 (stereo partly drawn) [Example 2.41.206., 1-(Azetidin-1-yl)-2-(((2S,3R,4S,5R,6R)-3,5-dihydroxy-6-(hydroxymethyl)-4-(4-(3,4,5-trifluorophenyl)-1H-1,2,3-triazol-1-yl)tetrahydro-2H-pyran-2-yl)thio)-2-(4-hydroxytetrahydro-2H-pyran-4-yl)ethan-1-one] | IC50 [1, 6]: 0.26 µM |
